From the METLIN SMRT retention time set (Domingo-Almenara et al. 2019)

Test: gradient 5% acetonitrile 3 min, to 50% in 2 min, to 85% in 15 min, held 3 min, 100 µL/min
Settings: column: Zorbax Extend-C18 2.1 x 50 mm; eluents: water / acetonitrile, 0.1% formic acid
Outline: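 In both positive and negative ionization mode, a quadrupole time-of-flight mass spectrometer coupled to HPLC analyzed pure standards run in mixtures of ~100 molecules. The Zorbax Extend-C18 column (2.1 × 50 mm, 1.8 μm) was operated at 100 μL/min with water and acetonitrile, each containing 0.1% formic acid. The dead volume was 40 μL and the dwell volume 900 μL. Retention time came from adduct peaks that were computationally picked and individually inspected by hand.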

Row | SMILES | RP-LC retention time [s]
1 | COc1cccc(-n2c(=O)c(C(=O)NC3CCCCC3)c(O)c3cccnc32)c1 | 1280
2 | CCOC(=O)c1nc(NCc2ccccc2Cl)c2c(CC)noc2n1 | 1010
3 | O=S(=O)(c1ccc2c(c1)CCCC2)N1CCN(Cc2nnnn2-c2ccccc2)CC1 | 991
4 | O=C(CCc1nc(-c2ccc(N3CCCCC3)cc2)no1)N1CCC2(CC1)OCCO2 | 798
5 | Cc1ccc(CN2CC(Oc3ccc(-c4noc(-c5cccnc5)n4)cc3)C2)o1 | 691
6 | Cc1cc(C(=O)NCC2Cn3cccc3C(=O)N2C)n(C)n1 (stereo not drawn) | 600
7 | COC(=O)c1ccc2c(=O)n(Cc3ccc(F)cc3)c(N3CCN(C)CC3)nc2c1 | 668
8 | Cc1cccc(C)c1NC(=O)Cn1cnc2c(sc3nc(-c4ccccc4)ccc32)c1=O | 972
9 | CCc1sc(NC(=O)c2cc(Cl)c(NC(C)=O)cc2OC)nc1-c1ccccc1 | 1170
10 | O=C1C(c2ccncc2)N(Cc2ccco2)C(=O)CN1c1ccccc1 (stereo not drawn) | 628
11 | COc1ccc(-c2nc3cnccn3c2Nc2cccc(Cl)c2)cc1 | 961
12 | COc1ccc(-c2nc3n(n2)C2(CCCCC2)[C@@H]2CCCC[C@@H]2N3C(C)=O)cc1 | 1330
13 | Cc1cccn2cc(C(=O)N3CCN(c4ccc(Cl)cc4)CC3)nc12 | 946
14 | O=C(Nc1cccc2nsnc12)C1CCN(S(=O)(=O)N2CCOCC2)CC1 | 775
15 | O=C(NCCCn1cccc1)C1COc2ccccc2O1 (stereo not drawn) | 803
16 | CCOc1ccc(NC(=O)Cn2nc3cc(C)nc(-c4ccccc4)n3c2=O)cc1 | 705
17 | Cc1nnc(NC(=O)CSCc2ccco2)s1 | 632
18 | COc1ccc(-c2cc3nn(CC(=O)Nc4cc(F)ccc4C)c(=O)n3c(C)n2)cc1 | 885
19 | CCOC(Cn1c(-c2ccc(OC)cc2)nc2ccccc21)OCC | 713
20 | CC(C)n1c(=O)oc2cc(-c3noc(-c4cccc(F)c4)n3)ccc21 | 1200
21 | Cc1ccc(S(=O)(=O)NCCCC(=O)NCc2ccccc2)cc1 | 732
22 | CNC(=O)C1CCCN(c2nc3ncn(CC(=O)Nc4ccc(F)c(Cl)c4)c(=O)c3s2)C1 (stereo not drawn) | 693

Row | SMILES | RP-LC retention time [s]
23 | CC1CC(=O)c2cnn(-c3nc4ccccc4[nH]3)c2C1 (stereo not drawn) | 761
24 | O=C(Nc1ccc(F)cc1)N1CCCC1c1nc(-c2cccc(F)c2)no1 (stereo not drawn) | 965
25 | Fc1ccc(CN2CCC(F)(c3nc(-c4cnccn4)no3)CC2)c(Cl)c1 | 712
26 | Cc1ccc(F)c(NS(=O)(=O)c2cc(-c3nc(C(C)(C)C)cs3)cs2)c1 | 1260
27 | Cc1ccccc1Cn1nc2c(S(=O)(=O)N3CCc4ccccc4C3)cccn2c1=O | 987
28 | CCOC(=O)c1sc(NC(=O)c2cccc([N+](=O)[O-])c2)nc1-c1ccccc1 | 1100
29 | CCCc1ccc(S(=O)(=O)N2CCC(C(=O)NCc3csc(-c4cccs4)n3)CC2)cc1 | 1050
30 | CN(C)S(=O)(=O)N(CC(=O)Nc1ccc(F)c(Cl)c1)c1ccccc1 | 986
31 | CCOC(=O)CNC(=O)C(c1ccccc1)n1cccc1 (stereo not drawn) | 784
32 | COc1ccc(-c2cn3c(CC(=O)N4CCN(c5ccccc5F)CC4)csc3n2)cc1OC | 780
33 | CCS(=O)(=O)N1CC(=O)N(c2ccc(C)cc2C)C(C)(C(=O)NC2CCCCCC2)C1 (stereo not drawn) | 1000
34 | Cc1cc(NC(=O)CSc2cn(Cc3cccc(F)c3)c3ccccc23)no1 | 951
35 | Cc1cc(-c2c(C)sc(C)c2S(=O)(=O)Nc2cccc(Br)c2)n[nH]1 | 1100
36 | CCOCC(=O)N1CCCN(C2=NS(=O)(=O)C(c3ccc(C)c(C)c3)=C2C)CC1 | 795
37 | Cc1cc(C)c2c(=O)n(Cc3nc(-c4ccccc4)oc3C)c(=O)n(C)c2n1 | 1160
38 | O=C(Nc1ccc2c(c1)OCCO2)C1CCN(C(=O)c2ccccc2F)CC1 | 734
39 | Cc1csc(-c2cc(S(=O)(=O)NCc3ccc(Br)cc3)c(C)s2)n1 | 1050
40 | COC(=O)c1ccccc1Nc1c(-c2ccc(F)cc2)nc2cnc(Br)cn12 | 1120
41 | C[C@@H](Nc1cc(NS(=O)(=O)N2CCC2)nc(SCc2cccc(F)c2F)n1)[C@@H](O)CO | 845
42 | CN1C(=O)c2cc(C(=O)NCc3ccc(F)cc3)nn2CC1(C)C(=O)NC1CCCC1 (stereo not drawn) | 747
43 | CC(C)c1cc(N2CCN(c3ccccn3)CC2)n2ncc(-c3ccccc3)c2n1 | 670
44 | CC(C)NC(=O)N1CCCC1c1nc(-c2cccc(C(F)(F)F)c2)no1 (stereo not drawn) | 902

Row | SMILES | RP-LC retention time [s]
45 | COc1ccc(-c2noc(-c3cccn(CC(=O)Nc4cccc(SC)c4)c3=O)n2)cc1OC | 853
46 | COc1cccc2cc(C(=O)N3CC(c4nc(C5CC5)no4)C3)oc12 | 788
47 | O=C(NCc1ccc(F)cc1Cl)C1CCCN(c2cnc3nccnc3c2)C1 (stereo not drawn) | 748
48 | Cc1ccc(N(C(=O)Cc2ccccc2)C2C=CS(=O)(=O)C2)cc1Cl (stereo not drawn) | 869
49 | O=C(CCc1cccc2[nH]ccc12)N1CCN(c2cccc(Cl)c2)CC1 | 980
50 | Cc1ccccc1-c1cc2c(=O)n(Cc3nc(-c4ccccc4)no3)ccn2n1 | 1050
51 | O=C(Nc1ccc(C2(C(=O)NCc3cccc(Cl)c3)CCC2)cc1)C1CC1 | 891
52 | Cc1ccc(S(=O)(=O)N2C[C@@H](F)C[C@H]2C(=O)N2CCCCC2)c(C)c1 | 874
53 | Cc1noc(C)c1S(=O)(=O)N1CCCn2nc(-c3cccs3)cc2C1 | 880
54 | CCOC(=O)c1c(C)n(C)c2ccc(OC(C)C(=O)OC)cc12 (stereo not drawn) | 894
55 | C(#Cc1ccccc1)CN1CCN(c2ccccn2)CC1 | 553
56 | Cc1ccccc1CNC(=O)C1(C)CCCN(C(=O)Nc2ccccc2C)C1 (stereo not drawn) | 959
57 | Cc1ccc(-c2noc(CN3C(=O)COc4ccc(C(C)(C)C)cc43)n2)cc1C | 1390
58 | COc1ccc(CC(=O)N2CCCC2c2cc(C(C)C)on2)cc1 (stereo not drawn) | 868
59 | Nc1ccc2c(c1)N=[N+]([O-])c1cc(N)ccc1C2 | 628
60 | O=c1c2cc(-c3ccc(Br)cc3)nn2cnn1Cc1nc(-c2ccc3c(c2)OCO3)no1 | 1160
61 | O=C(CN1c2ccc(F)cc2-c2ccccc2S1(=O)=O)Nc1ccc(F)cc1 | 948
62 | Cc1sc(NC(=O)c2cccnc2)nc1-c1ccc2c(c1)N(C)C(=O)CO2 | 754
63 | Clc1ccc(CNc2c(-c3ccc4c(c3)OCCO4)nc3ncccn23)cc1 | 722
64 | CC(=O)Oc1ccc(C2=NN(C(C)=O)C(c3ccc(F)cc3)O2)c(OC(C)=O)c1 (stereo not drawn) | 936
65 | Cc1nc([C@@H]2CN(C(=O)CCc3c(C)n[nH]c3C)C[C@H]2C(N)=O)n[nH]1 | 523
66 | O=C(Cn1c(=O)cc(-c2nc(-c3ccccc3)no2)c2ccccc21)N1CCCC1 | 1000

Row | SMILES | RP-LC retention time [s]
67 | C[C@H](Nc1ncnc2nc[nH]c12)c1cc2cccc(Cl)c2c(=O)n1-c1ccccc1 | 697
68 | O=C(NC1CCN(C(=O)c2cc(-c3cccs3)[nH]n2)CC1)c1ccccc1Cl | 718
69 | O=C1NCCCCCCN(C(=O)c2ccco2)[C@H]2C[C@H](C(=O)N3CCc4ccccc4C3)C[C@@H]12 | 824
70 | O=C(NC1CCN(c2nnc3ccc(Cl)cn23)CC1)c1cccnc1 | 567
71 | COc1cccc(-c2nc(C3CCN(S(=O)(=O)c4ccc(F)c(C)c4)CC3)no2)c1 | 1150
72 | COC(=O)c1cccc(NC(=O)NC2CCN(c3ccccc3)C2=O)c1 (stereo not drawn) | 769
73 | O=C(OCC(=O)c1ccc(Cl)cc1Cl)c1ccc2ccccc2n1 | 991
74 | Cc1ccc2c(c1)N(Cc1nc(-c3ccc(F)c(Cl)c3)no1)C(=O)CO2 | 1200
75 | O=c1c2ccccc2nc2n1CCCC2 | 653
76 | CCc1nn(CC(=O)N2CCN(c3ncccn3)CC2)c(=O)c2cc3sccc3n12 | 730
77 | Cc1ccn(-c2ccc(C(=O)Nc3ccccc3)cn2)n1 | 885
78 | CC(=O)Nc1c(C)nn(-c2ccc(Cl)cc2)c1N1CCC(C(=O)NCc2ccco2)CC1 | 685
79 | Cc1c(S(=O)(=O)NCc2ccco2)c(C)n(C)c1-c1nnc(C2CCC2)o1 | 853
80 | CCCc1ccc(S(=O)(=O)N2CC=C(c3cn(C)c4ncccc34)CC2)cc1 | 1030
81 | Cc1cccc(N2CCN(c3ccc4cc(S(=O)(=O)N5CCCC5)ccc4n3)CC2C)c1 (stereo not drawn) | 962
82 | CCc1ccccc1NC(=O)Cn1c(N2CCCC2)nc(C)cc1=O | 659
83 | COc1ccccc1CNC(=O)c1ccc2c(c1)nc1n2CCN(Cc2ccccc2)C1=O | 789
84 | COc1ccc(NC(=O)N2CCC(c3nc4cccnc4n3C)C2)cc1 (stereo not drawn) | 617
85 | COCC(=O)N[C@@H]1CN(C(=O)C2CC=CC2)CC[C@@H]1CO | 578
86 | Cc1cccc(NC(=O)N2C[C@@H](F)C[C@H]2C(=O)N2CCc3ccccc3C2)c1C | 811
87 | CCN(CC)CCNC(=O)c1ccc(-c2nc(CCN(C)C(C)=O)no2)cc1 | 576
88 | CCN1C(=O)COc2ccc(-c3noc(-c4cccc(C)c4)n3)cc21 | 1210
